Experimental data taken from ChEMBL document CHEMBL1146289, “1,5-Biaryl pyrrole derivatives as EP1 receptor antagonists: Structure-activity relationships of 4- and 5-substituted benzoic acid derivatives” (Bioorg Med Chem Lett, 2007).

Tests used:
[1] = biological target: T1, Prostaglandin E2 receptor EP1 subtype (Homo sapiens, UniProt P34995); assay: Displacement of [3H]PGE2 from human recombinant EP1 receptor expressed in CHO cell membranes
T1 sequence (P34995 whole entry): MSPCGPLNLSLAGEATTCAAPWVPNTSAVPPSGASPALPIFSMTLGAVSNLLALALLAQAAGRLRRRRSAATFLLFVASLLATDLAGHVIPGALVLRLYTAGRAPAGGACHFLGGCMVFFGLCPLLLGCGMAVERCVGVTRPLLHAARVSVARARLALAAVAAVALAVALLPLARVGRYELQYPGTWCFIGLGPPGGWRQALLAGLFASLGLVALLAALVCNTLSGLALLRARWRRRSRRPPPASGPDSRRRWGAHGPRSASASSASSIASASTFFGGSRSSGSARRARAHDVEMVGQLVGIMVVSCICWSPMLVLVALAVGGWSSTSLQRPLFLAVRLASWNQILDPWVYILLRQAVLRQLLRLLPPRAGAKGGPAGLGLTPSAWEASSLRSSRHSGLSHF

[2] = system: Rattus norvegicus; assay: AUC (0-t) in rat at 3 mg/kg, po; assay type: ADME, organism-based, Plasma; set-up: dose 3 mg/kg, route oral; settings: in vivo
[3] = Tmax in rat at 3 mg/kg, po; assay type: ADME, organism-based; set-up: dose 3 mg/kg, route oral; settings: in vivo
[4] = Cmax in rat at 3 mg/kg, po; assay type: ADME, organism-based; set-up: dose 3 mg/kg, route oral; settings: in vivo
[5] = system: Rattus norvegicus; assay: Reversal of hypersensitivity in rat FCA model of inflammatory pain at 5 mg/kg, po; assay type: functional
[6] = species: Rattus norvegicus; assay: Reversal of hypersensitivity in rat FCA model of inflammatory pain; assay type: functional
[7] = biological target: T2, Cytochrome P450 1A2 (Homo sapiens, UniProt P05177); assay: Inhibition of CYP1A2; assay type: ADME
T2 sequence (P05177 whole entry): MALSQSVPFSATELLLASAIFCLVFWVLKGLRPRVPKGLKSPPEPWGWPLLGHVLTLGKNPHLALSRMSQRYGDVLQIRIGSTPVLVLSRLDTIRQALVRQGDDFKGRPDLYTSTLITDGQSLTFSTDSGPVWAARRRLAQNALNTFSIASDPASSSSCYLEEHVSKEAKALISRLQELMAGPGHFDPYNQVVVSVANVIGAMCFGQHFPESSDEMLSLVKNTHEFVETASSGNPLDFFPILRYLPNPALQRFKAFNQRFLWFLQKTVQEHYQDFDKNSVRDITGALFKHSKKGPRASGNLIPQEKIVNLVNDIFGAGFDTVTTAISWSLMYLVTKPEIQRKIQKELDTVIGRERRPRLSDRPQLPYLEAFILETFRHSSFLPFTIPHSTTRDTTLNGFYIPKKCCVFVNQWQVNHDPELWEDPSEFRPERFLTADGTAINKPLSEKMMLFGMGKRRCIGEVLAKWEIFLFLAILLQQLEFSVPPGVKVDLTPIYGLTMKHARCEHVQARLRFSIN

[8] = biological target: Cytochrome P450 2C9 (Homo sapiens, UniProt P11712); assay: Inhibition of CYP2C9; assay type: ADME
Cytochrome P450 2C9, sequence (P11712 whole entry): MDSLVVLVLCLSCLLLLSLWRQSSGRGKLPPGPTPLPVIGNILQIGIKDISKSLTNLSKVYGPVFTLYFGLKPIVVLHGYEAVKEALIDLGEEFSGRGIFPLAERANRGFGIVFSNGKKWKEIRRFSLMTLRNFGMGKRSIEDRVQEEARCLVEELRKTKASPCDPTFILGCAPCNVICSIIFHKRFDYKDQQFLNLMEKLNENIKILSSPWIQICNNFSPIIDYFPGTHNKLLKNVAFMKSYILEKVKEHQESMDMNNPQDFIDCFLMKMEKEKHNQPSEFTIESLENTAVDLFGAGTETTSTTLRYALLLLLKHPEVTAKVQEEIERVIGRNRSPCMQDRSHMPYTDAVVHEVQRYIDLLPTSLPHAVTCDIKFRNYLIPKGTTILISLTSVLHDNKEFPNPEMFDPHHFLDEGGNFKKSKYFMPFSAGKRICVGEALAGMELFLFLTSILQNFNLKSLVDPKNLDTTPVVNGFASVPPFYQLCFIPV

[9] = biological target: Cytochrome P450 2C19 (Homo sapiens, UniProt P33261); assay: Inhibition of CYP2C19; assay type: ADME
Cytochrome P450 2C19, sequence (P33261 whole entry): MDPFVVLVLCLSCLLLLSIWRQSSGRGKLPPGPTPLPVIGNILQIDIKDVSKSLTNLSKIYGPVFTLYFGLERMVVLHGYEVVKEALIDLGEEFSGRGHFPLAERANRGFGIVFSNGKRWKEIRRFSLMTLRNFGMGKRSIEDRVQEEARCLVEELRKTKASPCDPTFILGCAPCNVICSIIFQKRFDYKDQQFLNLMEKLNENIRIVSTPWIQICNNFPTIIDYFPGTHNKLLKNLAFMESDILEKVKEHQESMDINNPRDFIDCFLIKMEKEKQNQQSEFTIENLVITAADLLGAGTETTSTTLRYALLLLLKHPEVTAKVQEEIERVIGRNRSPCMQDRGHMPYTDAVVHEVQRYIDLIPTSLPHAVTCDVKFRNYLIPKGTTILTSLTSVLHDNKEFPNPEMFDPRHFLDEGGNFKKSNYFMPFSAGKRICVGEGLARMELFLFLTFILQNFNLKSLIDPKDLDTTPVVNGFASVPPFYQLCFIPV

[10] = biological target: Prostaglandin E2 receptor EP4 subtype (Homo sapiens, UniProt P35408); assay: Inhibition of EP4 receptor
Prostaglandin E2 receptor EP4 subtype, sequence (P35408 whole entry): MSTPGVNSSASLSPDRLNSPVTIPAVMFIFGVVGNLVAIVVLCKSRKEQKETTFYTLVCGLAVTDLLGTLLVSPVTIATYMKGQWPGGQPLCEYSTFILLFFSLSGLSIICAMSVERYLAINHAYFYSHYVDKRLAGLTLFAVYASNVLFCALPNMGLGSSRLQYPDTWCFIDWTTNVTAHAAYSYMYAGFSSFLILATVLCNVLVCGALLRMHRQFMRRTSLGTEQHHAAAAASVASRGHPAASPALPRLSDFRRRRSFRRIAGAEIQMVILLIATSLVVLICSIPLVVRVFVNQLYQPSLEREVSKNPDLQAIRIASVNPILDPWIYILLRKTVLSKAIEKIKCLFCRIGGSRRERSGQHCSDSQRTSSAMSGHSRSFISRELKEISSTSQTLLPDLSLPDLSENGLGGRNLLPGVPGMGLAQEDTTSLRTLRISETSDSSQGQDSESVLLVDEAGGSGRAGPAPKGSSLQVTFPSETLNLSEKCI

[11] = biological target: Cytochrome P450 2D6 (Homo sapiens, UniProt P10635); assay: Inhibition of CYP2D6; assay type: ADME
Cytochrome P450 2D6, sequence (P10635 whole entry): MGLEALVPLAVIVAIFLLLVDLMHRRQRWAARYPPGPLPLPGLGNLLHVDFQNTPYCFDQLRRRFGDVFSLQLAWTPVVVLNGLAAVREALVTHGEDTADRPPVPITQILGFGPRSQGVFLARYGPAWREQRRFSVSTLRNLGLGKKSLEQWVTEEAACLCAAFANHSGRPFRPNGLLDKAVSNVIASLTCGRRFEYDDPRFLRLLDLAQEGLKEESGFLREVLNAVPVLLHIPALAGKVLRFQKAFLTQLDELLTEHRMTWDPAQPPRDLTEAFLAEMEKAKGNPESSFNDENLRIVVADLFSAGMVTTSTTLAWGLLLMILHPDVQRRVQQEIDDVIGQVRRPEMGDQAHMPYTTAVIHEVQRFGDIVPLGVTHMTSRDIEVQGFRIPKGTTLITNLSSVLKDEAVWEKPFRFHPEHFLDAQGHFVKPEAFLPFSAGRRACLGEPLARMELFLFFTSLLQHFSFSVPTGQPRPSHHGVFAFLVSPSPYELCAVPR

[12] = biological target: Cytochrome P450 3A4 (Homo sapiens, UniProt P08684); assay: Inhibition of CYP3A4; assay type: ADME
Cytochrome P450 3A4, sequence (P08684 whole entry): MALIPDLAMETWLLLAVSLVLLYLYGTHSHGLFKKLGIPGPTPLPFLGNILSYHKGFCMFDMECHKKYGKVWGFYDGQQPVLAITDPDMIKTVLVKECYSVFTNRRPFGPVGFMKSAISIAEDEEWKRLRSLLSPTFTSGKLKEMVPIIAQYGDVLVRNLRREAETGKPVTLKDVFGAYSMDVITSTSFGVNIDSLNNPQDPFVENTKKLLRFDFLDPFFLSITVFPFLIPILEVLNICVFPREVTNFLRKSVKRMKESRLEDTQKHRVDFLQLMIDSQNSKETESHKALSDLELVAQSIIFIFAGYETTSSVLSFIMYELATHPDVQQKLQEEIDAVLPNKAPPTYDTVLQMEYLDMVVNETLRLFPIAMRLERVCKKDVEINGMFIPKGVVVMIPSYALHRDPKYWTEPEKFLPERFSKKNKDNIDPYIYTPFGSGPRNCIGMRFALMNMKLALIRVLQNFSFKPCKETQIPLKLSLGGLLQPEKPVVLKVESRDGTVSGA

[13] = biological target: T1, Prostaglandin E2 receptor EP1 subtype; assay: Inhibition of EP1 receptor expressed in CHO cells assessed as calcium mobilization by FLIPR assay; assay type: functional, cell-based
[14] = biological target: T3, Prostaglandin E2 receptor EP3 subtype (Homo sapiens, UniProt P43115); assay: Inhibition of EP3 receptor expressed in CHO cells assessed as calcium mobilization by FLIPR assay; assay type: functional, cell-based
T3 sequence (P43115 whole entry): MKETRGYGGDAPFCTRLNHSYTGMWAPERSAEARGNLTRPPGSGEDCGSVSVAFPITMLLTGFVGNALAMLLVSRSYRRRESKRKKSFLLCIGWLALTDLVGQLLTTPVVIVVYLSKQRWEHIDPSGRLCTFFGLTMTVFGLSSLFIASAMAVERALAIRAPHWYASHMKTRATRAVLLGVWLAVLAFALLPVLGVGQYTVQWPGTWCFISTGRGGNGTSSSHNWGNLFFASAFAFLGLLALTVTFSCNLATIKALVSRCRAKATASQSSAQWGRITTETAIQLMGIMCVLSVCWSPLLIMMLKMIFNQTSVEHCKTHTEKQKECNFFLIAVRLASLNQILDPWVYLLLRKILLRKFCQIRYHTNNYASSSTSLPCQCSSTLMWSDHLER

[15] = biological target: T4, Thromboxane A2 receptor (Homo sapiens, UniProt P21731); assay: Inhibition of TP receptor
T4 sequence (P21731 whole entry): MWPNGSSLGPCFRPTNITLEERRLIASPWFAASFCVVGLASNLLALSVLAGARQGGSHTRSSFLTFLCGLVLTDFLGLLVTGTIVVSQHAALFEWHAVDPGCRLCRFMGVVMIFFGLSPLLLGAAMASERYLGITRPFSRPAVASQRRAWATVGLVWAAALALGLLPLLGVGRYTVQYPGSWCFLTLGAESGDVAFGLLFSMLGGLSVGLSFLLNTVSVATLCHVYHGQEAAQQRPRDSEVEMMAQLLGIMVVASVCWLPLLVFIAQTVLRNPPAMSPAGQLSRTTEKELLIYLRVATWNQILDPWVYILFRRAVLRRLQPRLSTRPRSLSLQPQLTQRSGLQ

[16] = biological target: T5, Thromboxane A2 receptor (Homo sapiens) (UniProt P21731)
T5 sequence (whole entry): T4 sequence (P21731 whole entry)

In the case of `Cc1ccc(-c2cc(C(F)(F)F)ccc2OCc2ccccc2)n1-c1cc(C(=O)O)ccc1F`, the IC50 [1] is reported as 6.31 nM.
With `CC(=O)Nc1cc(C(=O)O)cc(-n2c(C)ccc2-c2cc(Br)ccc2OCc2ccc(F)cc2F)c1` the IC50 [1] was 0.398 nM, the AUC [2] was 21 kg·min/L and the Tmax [3] was 30 min. The Cmax [4] was 1410 nM, the Activity [5] was 72% and the ED50 [6] was 1.1 mg/kg. For the same compound, the IC50 [7] was no less than 18000 nM, the IC50 [8] was no less than 18000 nM and the IC50 [9] was no less than 18000 nM. The IC50 [10] was 158 nM, the IC50 [11] was no less than 18000 nM and the IC50 [12] was no less than 18000 nM. It also gave a Ki [13] of 0.1 nM, a Ki [14] of 501 nM and an IC50 [15] of 2.51 nM. It also gave a pKb [16] of 9.
For `Cc1ccc(-c2cc(C(F)(F)F)ccc2OCc2ccc(F)cc2)n1-c1cc(C(=O)O)cc(N2CCCS2(=O)=O)c1`, the IC50 [1] was 7.94 nM.
Compound `Cc1ccc(-c2cc(Br)ccc2OCc2ccc(F)cc2F)n1-c1cc(Cl)cc(C(=O)O)c1` has an IC50 [1] of 3.98 nM.
For `Cc1ccc(-c2cc(Br)ccc2OCc2ccc(F)cc2)n1-c1cc(C(=O)O)ccc1F`, the IC50 [1] was 6.31 nM, the AUC [2] was 6 kg·min/L and the Tmax [3] was 30 min. The Cmax [4] was 230 nM.
`Cc1ccc(-c2cc(Cl)ccc2OCc2ccc(F)cc2F)n1-c1cc(C(=O)O)ccc1F` showed an IC50 [1] of 6.31 nM, an AUC [2] of 4 kg·min/L and a Tmax [3] of 30 min. It also gave a Cmax [4] of 230 nM.
Work on `CC(=O)Nc1cc(C(=O)O)cc(-n2c(C)ccc2-c2cc(I)ccc2OCc2ccc(F)cc2F)c1` yielded an IC50 [1] of 1.58 nM.
For `Cc1ccc(-c2cc(Cl)ccc2OCc2ccc(F)cc2F)n1-c1cc(C(=O)O)ccc1Cl`, the IC50 [1] was 158 nM.
In the case of `CC(=O)Nc1cc(C(=O)O)cc(-n2c(C)ccc2-c2cc(F)ccc2OCc2ccc(F)cc2)c1`, the IC50 [1] is reported as 3.98 nM, the AUC [2] is reported as 60 kg·min/L and the Tmax [3] is reported as 30 min. For the same compound, the Cmax [4] was 2950 nM and the Activity [5] was 55%.
Compound `Cc1ccc(-c2cc(Br)ccc2OCc2ccc(F)cc2F)n1-c1cc(C(=O)O)cc(N2CCCCC2=O)c1` has an IC50 [1] of 1.26 nM.
Compound `Cc1ccc(-c2cc(Cl)ccc2OCc2ccccc2)n1-c1cc(N)cc(C(=O)O)c1` has an IC50 [1] of 3.98 nM.
`Cc1ccc(-c2cc(Cl)ccc2OCc2ccc(F)cc2F)n1-c1cc(Cl)cc(C(=O)O)c1` showed an IC50 [1] of 3.98 nM.
Work on `Cc1ccc(-c2cc(Cl)ccc2OCc2ccc(F)cc2)n1-c1cc(C(=O)O)ccc1Cl` yielded an IC50 [1] of 316 nM.
`Cc1ccc(-c2cc(Cl)ccc2OCc2ccccc2)n1-c1cc(Br)cc(C(=O)O)c1` showed an IC50 [1] of 5.01 nM, an AUC [2] of 6 kg·min/L and a Tmax [3] of 30 min. The Cmax [4] was 310 nM.
Work on `CC(=O)Nc1cc(C(=O)O)cc(-n2c(C)ccc2-c2cc(Cl)ccc2OCc2ccc(F)cc2)c1` yielded an IC50 [1] of 2.51 nM, an AUC [2] of 20 kg·min/L and a Tmax [3] of 30 min. The Cmax [4] was 2080 nM and the Activity [5] was 94%.
`Cc1ccc(-c2cc(Br)ccc2OCc2ccc(F)cc2F)n1-c1cc(C(=O)O)cc(C(F)(F)F)c1` showed an IC50 [1] of 12.6 nM.
Work on `CC(=O)Nc1cc(C(=O)O)cc(-n2c(C)ccc2-c2cc(Cl)ccc2OCc2ccccc2)c1` yielded an IC50 [1] of 2 nM, an AUC [2] of 8 kg·min/L and a Tmax [3] of 30 min. It also gave a Cmax [4] of 580 nM.
With `CCOc1ccc(C(=O)O)cc1-n1c(C)ccc1-c1cc(Cl)ccc1OCc1ccccc1` the IC50 [1] was 126 nM.
`COC(=O)Nc1cc(C(=O)O)cc(-n2c(C)ccc2-c2cc(Cl)ccc2OCc2ccccc2)c1` showed an IC50 [1] of 5.01 nM.
For `CC(=O)Nc1cc(C(=O)O)cc(-n2c(C)ccc2-c2cc(C(F)(F)F)ccc2OCc2ccccc2)c1`, the IC50 [1] was 1.26 nM, the Tmax [3] was 42 min and the Cmax [4] was 20 nM.
Work on `CC(=O)N(C)c1cc(C(=O)O)cc(-n2c(C)ccc2-c2cc(Br)ccc2OCc2ccc(F)cc2F)c1` yielded an IC50 [1] of 1.26 nM.
Work on `Cc1ccc(-c2cc(Br)ccc2OCc2ccc(F)cc2F)n1-c1cc(N)cc(C(=O)O)c1` yielded an IC50 [1] of 0.501 nM, an AUC [2] of less than 1 kg·min/L and a Tmax [3] of 30 min. The Cmax [4] was 50 nM.
`CC(=O)Nc1cc(C(=O)O)cc(-n2c(C)ccc2-c2cc(Br)ccc2OCc2ccc(F)cc2)c1` showed an IC50 [1] of 0.794 nM.
`Cc1ccc(-c2cc(Cl)ccc2OCc2ccccc2)n1-c1cc(C(=O)O)cc(N2CCCS2(=O)=O)c1` showed an IC50 [1] of 5.01 nM.
Compound `COc1ccc(C(=O)O)cc1-n1c(C)ccc1-c1cc(Cl)ccc1OCc1ccccc1` has an IC50 [1] of 251 nM.
With `Cc1ccc(-c2cc(Cl)ccc2OCc2ccc(F)cc2F)n1-c1cc(C(=O)O)cc(C(F)(F)F)c1` the IC50 [1] was 10 nM.
With `CC(=O)Nc1cc(C(=O)O)cc(-n2c(C)ccc2-c2cc(Br)ccc2OCc2ccccc2)c1` the IC50 [1] was 1.26 nM.
Work on `Cc1ccc(-c2cc(Br)ccc2OCc2ccc(F)cc2F)n1-c1cc(C(=O)O)cc(N2CCCC2=O)c1` yielded an IC50 [1] of 2 nM.
In the case of `Cc1ccc(-c2cc(Br)ccc2OCc2ccccc2)n1-c1cc(N)cc(C(=O)O)c1`, the IC50 [1] is reported as 3.16 nM.
Work on `Cc1ccc(-c2cc(Cl)ccc2OCc2ccc(F)cc2F)n1-c1cc(Br)cc(C(=O)O)c1` yielded an IC50 [1] of 5.01 nM.
With `Cc1ccc(-c2cc(Cl)ccc2OCc2ccc(F)cc2)n1-c1cc(NS(C)(=O)=O)cc(C(=O)O)c1` the IC50 [1] was 1.58 nM.
